# Tests used:
# [1] = biological target: T1, LXRα (Homo sapiens, UniProt Q13133); test: Gal4-LXRα co-transfection promoter-reporter assay; assay type: cell-based; conditions: HEK293T cells, read-out: LXR agonist activity EC50
# T1 sequence (Q13133 209-447 limits assumed): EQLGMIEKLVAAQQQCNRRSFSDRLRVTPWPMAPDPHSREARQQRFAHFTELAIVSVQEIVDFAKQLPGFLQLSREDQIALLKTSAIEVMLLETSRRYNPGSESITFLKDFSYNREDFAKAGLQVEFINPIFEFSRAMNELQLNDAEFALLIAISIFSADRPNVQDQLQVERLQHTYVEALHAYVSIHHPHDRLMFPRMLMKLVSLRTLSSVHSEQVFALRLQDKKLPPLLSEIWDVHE
# From the text: (§1) FIGS. 1A to 1E: Pan modulator with poly-pharmacology. […] FIG. 1D is a graph showing PPARγ target genes (aP2 and CD36) expression in OP9 cells with and without MDI (IBMX, dexamethasone, insulin) treatment. […] SR1903 is represented as orange sticks while PPARγ, RORγ, and LXRβ are depicted as blue ribbons respectively. Specific residues driving the interaction labelled and shown as sticks as well. […] FIG. 1F are graphs showing RORγ target genes (IL17A and IL17F) expression in EL4 cells.
# Reporter gene assays: Twenty-four hours before transfection, HEK293T cells were plated in 96-well plates at a density of 15×10^3 cells per well. UAS:luciferase reporter and Ga14-RORa, Gal4-RORb, Gal4-RORγ, Gal4-LXRα, or Gal4 PPARγ DNA co-transfections were performed using X-tremeGENE 9 (Roche). Twenty-four hours after transfection, the cells were treated with vehicle or compound. Twenty-four hours after treatment, the luciferase activity was measured using the Dual-Glo luciferase assay system (Promega). Results were analyzed using GraphPad Prism software.
# [2] = tested on: OP9 cells; test: Adipogenesis and gene expression in MDI-differentiated OP9 cells; assay type: cell-based
# From the text: as §1
# FIG. 5A-5C: PPARγ and RORγ expression during adipogenesis of OP9 cells.
# Cell lines: HEK293T cells and EL4 cells (American Type Culture Collection) were maintained in DMEM and RAW264.7 cells (American Type Culture Collection) were maintained in RPMI-1640 with 10% heat inactivated FBS and antibiotics (penicillin, streptomycin; Invitrogen). OP9 cells (American Type Culture collection) were maintained in Alpha minimum essential medium (MEM-alpha) with 20% heat inactivated FBS. Twenty-four hours post-confluence, the OP9 cells were differentiated with IBMX ([…]), dexamethasone (1 μM), Insulin (10 μg/mL) for 48 hrs.
# Quantitative RT-PCR: Total RNA was extracted from EL4 or RAW264.7 cells using RNeasy Plus Micro Kit (Qiagen) and the RNA was reverse transcribed using the ABI reverse transcription kit (Applied Biosystems/Thermo Fisher Scientific, Waltham MA). Quantitative PCR was performed with a 7900HT Fast Real Time PCR System (Applied Biosystems) using SYBR green (Roche).
# [3] = biological target: T2, LXRα LBD (Homo sapiens, UniProt Q13133); test: Differential HDX-MS of LXRα LBD; assay type: binding; conditions: 1:10 molar excess of ligand
# T2 construct: 10 μM of the apo protein (LXRα LBD and PPARγ LBD) was mixed with 1:10 molar excess of ligand
# T2 sequence (Q13133 209-447 limits assumed): T1 sequence (Q13133 209-447 limits assumed)
# Experimental: Hydrogen-deuterium exchange (HDX) detected by mass spectrometry (MS): Solution-phase amide HDX experiments were carried out with a fully automated system (CTC HTS PAL, LEAP Technologies, Carrboro, NC; housed inside a 4° C. cabinet) as described previously with the modifications described below^41.
# Peptide Identification: Peptides were identified using tandem MS (MS/MS) experiments performed with a QExactive (ThermoFisher, San Jose, CA) over a 70 min gradient. Product ion spectra were acquired in a data-dependent mode and the five most abundant ions were selected for the product ion analysis per scan event. […]
# Hydrogen/deuterium exchange (HDX) analysis: 10 μM of the apo protein (LXRα LBD and PPARγ LBD) was mixed with 1:10 molar excess of ligand and incubated for 2 hours at 4° C. for complex formation before subjecting them to HDX analysis. […] The intensity weighted mean m/z centroid value of each peptide envelope was calculated and subsequently converted into a percentage of deuterium incorporation. […] In the absence of a fully deuterated control, 100% deuterium incorporation was calculated theoretically, and corrections for back-exchange were made on the basis of an estimated 70% deuterium recovery and accounting for 80% final deuterium concentration in the sample (1:5 dilution in D2O HDX buffer). […]
# [4] = Food intake in lean mice and conditioned taste aversion; assay type: in vivo
# [5] = tested on: collagen-induced arthritis; test: Collagen-induced arthritis (CIA) mouse model
# Experimental: Clinical score was monitored every day after boosting during 18 days. […] The dosage of all compounds was identical in each group.
# Briefly, DBA/1J mice were injected with chicken type II collagen on day 1 and then each animal received a boost injection of collagen on Day 21. Compound treatment, initiated on day 3-post boost injection, was administered intraperitoneally at 20 mg/kg twice-a-day for a total of 16 days. […] Mice: All mice were maintained in a specific pathogen-free environment in accordance with institutional protocol. […] Female DBA/1J mice were purchased from Taconic. CIA was induced in 8 weeks as previously described^40.
# [6] = OP9 cells, MDI plus 5 uM SR1903, compared to MDI treatment alone
smiles,measurement,setting,value
"Cc1cc(CN2CCN(Cc3ccncc3)CC2)ccc1-c1ccc(C(O)(C(F)(F)F)C(F)(F)F)cc1 [SR1903, 1,1,1,3,3,3-hexafluoro-2-(2′-methyl-4′-((4-(pyridin-4-ylmethyl)piperazin-1-yl)methyl)-[1,1′-biphenyl]-4-yl)propan-2-ol]",EC50,[1],689 nM
same,expression of PPARγ,[2]; OP9 adipogenesis,robustly repressed
same,expression of RORγ,[2]; OP9 adipogenesis,no effect
same,lipid droplet formation,"[2]; OP9 cells, MDI in combination with SR1903, 3 days",suppression of lipid droplet formation
same,repression of PPARγ target gene CD36 expression,[2]; [6],87%
same,repression of PPARγ target gene aP2 (FABP4) expression,[2]; [6],99%
same,deuterium exchange of LXRα LBD,[3],makes a direct interaction with the receptor
same,conditioned taste aversion,[4]; 20 mg/kg,no effect
same,food intake,[4]; lean mice,no effect on food intake
same,enlargement of the liver,"[5]; CIA mice, 20 mg/kg",did not cause enlargement of the liver
same,thymocyte differentiation and survival,"[5]; CIA mice, compared to GW3965 or T0901317",enhanced thymocyte differentiation and survival
same,arthritis clinical score,"[5]; Day 34, 20 mg/kg i.p. twice-a-day, vehicle 13.6±2.9",3.8±2.5
same,intrathymic cell number,"[5]; treated mice, unlike SR2211 treated mice",enriched
